Test results: patent US20030175735A1, “Recombinant adenylcyclase and use thereof for screening molecules with proteolytic activity” (priority 2000, published 2003)

Experiments:
wild-type HIV protease [1] = target: wild-type HIV protease (Human immunodeficiency virus type 1 group M subtype B, UniProt P04585); assay type: cell-based
Description: (§1) The bacteria are cultured in Luria-Bertani (LB) liquid or agar (15 g/l agar) medium. Their ability to ferment sugars is tested on McConkey agar medium containing 1% of maltose (Miller, 1972, Experiments in Molecular Genetics, Cold Spring Harbor Lab. Press, Cold Spring Harbor, N.Y.). The antibiotics are used at the following concentrations: ampicillin: 100 μg/ml and kanamycin: 50 μg/ml. The protease inhibitors, indinavir (Crixivan, Merck) and saquinavir (Invirase, Roche) are dissolved, respectively, in ethanol and in water (final concentration 20 mM) and then diluted in the culture media at the concentrations indicated.
In order to test this system, a recombinant protein according to the invention, ACp5, into which is inserted, between amino acids 224 and 225 of the adenyl cyclase, the p5 cleavage site of the HIV protease, was generated. The plasmid expressing this protein (pKACp5, example 2) was cotransformed into an E. coli cya strain, with a compatible plasmid carrying or not carrying the wild-type HIV protease (pUCVIH or pUC19).

HIV protease mutant V2 [2] = assay type: cell-based
Description: as §1
The DNA encoding the modified proteases was cloned into the vector of pUC19 (example 2) and the plasmids obtained were cotransformed with pKACp5 into the DHT1 strain. The phenotype of the transformed bacteria is observed on McConkey maltose medium containing or not containing protease inhibitors.

wild-type HIV protease [3] = assay type: cell-based; settings: for phenotype in the presence of inhibitor: Cya− in the absence of inhibitor
Description: as §1
A chimeric protein (ACPr) was therefore constructed (example 2), into which is inserted, between amino acids 224 and 225 of the adenyl cyclase, the HIV protease (99 residues) and its two cleavage sequences p5 and p6 (each one 8 amino acids) .

HIV protease mutant B3 [4] = experiment: system in cis: phenotype of DHT1 with pKACB3; assay type: cell-based
Description: as §1
(§2) For this study, the B1, B3, V1 and V2 proteases are inserted between amino acids 224 and 225 of the adenyl cyclase and the chimeric proteins obtained are expressed in the DHT1 strain (plasmids pKACB1, pKACB3, pKACV1 and pKACV2).

HIV protease mutant V2 [5] = experiment: system in cis: phenotype of DHT1 with pKACV2; assay type: cell-based
Description: as §1, §2

HIV protease mutant B1 = settings: modified protease B1
Description: (§3) The mutations are described relative to the amino acid sequence (1-99) of the reference virus protease (V: Val; I: Ile; M: Met; T: Thr; L: Leu and P: Pro). The level of resistance of the mutants corresponds to the relative increase (compared to the wild-type protease) in the concentration of inhibitors required to inhibit 50% of the viral replication.

HIV protease mutant B3 [6] = settings: modified protease B3 (M46I, V77I, V82T)
Description: as §3

HIV protease mutant V1 = settings: modified protease V1 (L63P)
Description: as §3

HIV protease mutant V2 [7] = settings: modified protease V2 (L10I, L63P, L90M)
Description: as §3

| SMILES | concentration needed for the bacteria to become Cya+ (wild-type HIV protease [1]) | concentration needed for the bacteria to become Cya+ (HIV protease mutant V2 [2]) | concentration up to which the bacteria have a Cya− phenotype (wild-type HIV protease [3]) | phenotype on medium containing 100 μM indinavir (wild-type HIV protease [3]; pKACPr, system in cis) | phenotype in the presence of inhibitor (wild-type HIV protease [3]; pKACPr, system in cis) | concentration up to which the bacteria have a Cya− phenotype (HIV protease mutant B3 [4]) | phenotype on medium containing 100 μM indinavir (HIV protease mutant V2 [5]) | Resistance to inhibitor: relative increase (compared to the wild-type protease) in the concentration required to inhibit 50% of the viral replication (HIV protease mutant B1) | Resistance to inhibitor: relative increase (compared to the wild-type protease) in the concentration required to inhibit 50% of the viral replication (HIV protease mutant B3 [6]) | Resistance to inhibitor: relative increase (compared to the wild-type protease) in the concentration required to inhibit 50% of the viral replication (HIV protease mutant V1) | Resistance to inhibitor: relative increase (compared to the wild-type protease) in the concentration required to inhibit 50% of the viral replication (HIV protease mutant V2 [7]) | phenotype on medium containing 20 μM of saquinavir (wild-type HIV protease [3]; pKACPr, system in cis) | phenotype at 10 μM (wild-type HIV protease [3]; pKACPr, system in cis, 10 μM saquinavir) | phenotype at 10 μM (HIV protease mutant B3 [4]; 10 μM saquinavir) | phenotype on medium containing 20 μM of saquinavir (HIV protease mutant V2 [5]) |
| --- | --- | --- | --- | --- | --- | --- | --- | --- | --- | --- | --- | --- | --- | --- | --- |
| CC(C)(C)NC(=O)[C@@H]1CN(Cc2cccnc2)CCN1C[C@@H](O)C[C@@H](Cc1ccccc1)C(=O)N[C@H]1c2ccccc2C[C@H]1O [indinavir] | 50 µM | 50 µM | 50 µM | red colonies | Cya^+ | 100 µM | Cya^− | 1 X | 13 X | 1 X | 4 X | – | – | – | – |
| CC(C)(C)NC(=O)[C@@H]1C[C@@H]2CCCC[C@@H]2CN1C[C@@H](O)[C@H](Cc1ccccc1)NC(=O)[C@H](CC(N)=O)NC(=O)c1ccc2ccccc2n1 [saquinavir] | 10 µM | 20 µM | – | – | Cya^+ | – | – | 1 X | 3 X | 1 X | 53 X | red colonies | red | Cya^− | Cya^− |
